Measurements from patent US12102612B2, “Pharmaceutical composition comprising hydroquinone derivative for preventing or treating obesity or nonalcoholic steatohepatitis” (BIOTOXTECH CO., LTD., priority 2018, dated 2024).
Entries after “also recorded” stand apart in the source; their conditions may differ.

Tests used:
[1] = system: MCD diet-fed NASH model (12 weeks); experiment: Efficacy in NASH model fed with MCD diet for 12 weeks; assay type: in vivo, male C57BL/6 mice; settings: MCD diet 12 weeks
Description: The duration of feeding MCD diet was extended to a total of 12 weeks to increase the induction level of NASH. To this end, male C57BL/6 mice at 7 weeks of age were fed with a methionine and choline-deficient diet for 8 weeks to induce nonalcoholic fatty liver and then subjected to the same repeat administration program at the same doses for 4 weeks as in Table 2.

[2] = system: MCD diet-fed NASH model (8 weeks); experiment: Efficacy in NASH model fed with methionine and choline deficient (MCD) diet for 8 weeks; assay type: in vivo, male C57BL/6 mice; settings: MCD diet 8 weeks; for alleviative effect on NASH / inhibitory activity against NASH: compared to the negative control, RSV and DDB complex 200 mg/kg
Description: A methionine and choline deficient (MCD) diet-fed model, in which steatosis has been induced as a result of the supply of a diet deficient in methionine and choline, which each play an important role in beta oxidation and very low-density lipoprotein, (VLDL) synthesis, is widely used as a model for observing an effect of alleviating NASH because it suffers from histopathologically serious lobular inflammation.
An MCD diet (RESEARCH DIETS, Product No: A02082002B) was fed 7-week-old male C57BL/6 mice for 4 weeks to induce nonalcoholic fatty liver and then for an additional 4 weeks during which the hydroquinone derivative compound 2,3,5-trimethylhydroquinone-1-hexylether (compound 1) according to the present invention and the comparative control drugs were orally administered to the mice at the specific doses repeatedly as indicated for test groups G3-G8 in Table 2. Alleviative effects on NASH were assessed by clinicopathological and histopathological examinations.
The normal group was fed with a normal diet (RESEARCH DIETS, Product No: A02082003B), but not the MCD diet. To the negative control, only the excipient 0.5% methyl cellulose (MC) aqueous solution was administered after the MCD diet was fed thereto. […] For resveratrol and the DDB hepatoprotectant, the daily dose was set forth to be 200 mg/kg.
(§1) The liver tissues were resected from mice fed with MCD diet for 8 weeks and prepared into hematoxylin-eosin (H&E) stained slides, as in the histopathological examination method of Test Example 1. Based on the criteria of Table 1, changes in 1) steatosis, 2) lesions such as hepatic lobular inflammation, etc. (lobular inflammation), and 3) ballooning degeneration of hepatocytes (ballooning) were analyzed and the scores were summed to afford NAFLD activity scores for evaluating therapeutic effects on NASH.

[3] = system: nonalcoholic fatty liver in mice; settings: cited from earlier work
mice = settings: repeated for 13 weeks; cited from earlier work
[4] = system: FFC diet-fed non-alcoholic steatohepatitis model; experiment: Efficacy in fat-, fructose- and cholesterol-rich (FFC) diet-fed non-alcoholic steatohepatitis model; assay type: in vivo, male C57BL/6 mice
Description: FFC diet (fat-, fructose-, and cholesterol-rich diet) (RESEARCH DIETS, Product No.: D12079B) was fed to male C57BL/6 mice 6-7 weeks old for 16 weeks to induce nonalcoholic fatty liver. Only animals with a NAFLD activity score (NAS) of 3.2 or more were selected by biopsy. Two weeks after biopsy, the animals were divided into three test groups including a negative control injected with a 0.5% methyl cellulose (MC) aqueous solution only (FFC control) and compound 1 groups injected with a solution of compound 1 (2,3,5-trimethylhydroquinone-1-hexylether compound, 30 mg/kg and 200 mg/kg) in a 0.5% MC aqueous solution. Compound 1 was administered for a total of 2 months and evaluated for alleviative efficacy for NASH by histopathological examination.
For histopathological examination, the mice were sacrificed and subjected to hepatectomy. The liver tissues thus obtained were prepared into hematoxylin-eosin (H&E) stained slides. In brief, the resected liver tissues were fixed in 4% paraformaldehyde at 4° C. for 24 hours, washed with flowing water, embedded into paraffin, and sectioned into blocks 3-4 μm thick. The sectioned tissue was attached to a coated slide, de-paraffinized with xylene, and rehydrated with graded alcohols (99%, 95%, 90%, 80%, and 70% ethanol (EtOH)) before histological staining. The sectioned tissues were stained with hematoxylin for 5 min and washed with flowing water for 5 min, following by destaining with 1% HCl alcohol and ammonia. Subsequently, the tissues were washed with flowing water for 10 min, counterstained with eosin for 1 min, and dehydrated in the reverse order of the hydration before mounting.
The H&E-stained slides were histopathologically assessed under a microscope and scored according to the NAFLD activity score (NAS) criteria given in Table 1. NAFLD activity scores are expressed as a sum of assessment scores for changes in 1) steatosis, 2) lesions such as hepatic lobular inflammation, etc. (lobular inflammation), and 3) ballooning degeneration of hepatocytes (ballooning) and are widely used for evaluating the severity of NASH.

[5] = system: high-fat diet-induced insulin resistance; experiment: Insulin resistance assay in high-fat diet-fed mice; assay type: in vivo, male C57BL/6 mice; settings: week 7 of administration, vs negative control and other drug controls
Protocol: An insulin resistance assay was conducted on week 7 of administration of compound 1 to examine the effect of compound 1 on the insulin resistance induced by high-fat diet. For the insulin resistance assay, the mice were fast for 4 hours and intraperitoneally injected with insulin (0.7 IU/kg), followed by measuring blood glucose levels every 30 min. Insulin resistance was digitized for quantitative comparison. In this regard, while pre-insulin blood levels were set forth to be baselines, areas under the curves of reduced blood glucose levels were digitized into iAUC values (FIG. 14). Here, a smaller iAUC value means higher insulin resistance and a larger iAUC value means higher insulin sensitivity.

[6] = system: high-fat diet-fed obesity and NASH model; experiment: Efficacy in obesity and NASH model fed with high-fat diet (HFD); assay type: in vivo, male C57BL/6 mice
Protocol: High-fat diet with 60 kcal % (RESEARCH DIETS, Product No: D12492) was fed to 7-week-old male C57BL/6 mice for 16 weeks to induce nonalcoholic fatty liver, followed by repeatedly administering test substances, along with the high-fat diet, via an oral route for 9 weeks from weeks 17 to 25. Alleviative effects on NASH were assessed by clinicopathological and histopathological examinations.
The test groups included a normal control which was not fed with HFD, but with a normal diet (10 kcal % fat diet, RESEARCH DIETS, Product No: D12450B), a negative control which was fed with HFD and then with the excipient 0.5% methyl cellulose (MC) aqueous solution alone, compound 1 (2,3,5-trimethylhydroquinone-1-hexylether)-administered groups (30, 100, 200 mg/kg), and comparative controls (obeticholic acid 30 mg/kg, pioglitazone 10 mg/kg, and DDB hepatoprotectant 200 mg/kg).
During repeatedly oral administration of the test substances for 9 weeks as in the assay method of (1), the mice were observed and recorded for weight gain, food intake, and general symptoms.
as §1, with “Liver” for “The liver”, “from HFD-fed” for “from”, “mice” for “mice fed with MCD diet for 8 weeks”

rats [7] = experiment: Single-dose oral administration toxicity assay for rats; assay type: in vivo; settings: single oral dose as high as 2000 mg/kg
adult = experiment: Clinical trial phase 1 (single and 14-day repetitive administration); assay type: in vivo, human; settings: for abnormal responses (such as dyslipidemia) after repetitive administration: up to 1,000 mg per adult for 14 days
beagle dogs = experiment: Maximum tolerance dose in beagle dogs; assay type: in vivo
rats [8] = experiment: Toxicity assay of repetitive oral administration for 13 weeks; assay type: in vivo; settings: repeated for 13 weeks
[9] = system: normal persons and nonalcoholic fatty liver patients; settings: 10-25 mg per adult; cited from earlier work
[10] = system: western diet NASH mouse models; settings: cited from earlier work
CD-1(ICR) mice = settings: mouse, in vivo; cited from earlier work

SMILES: Oc1ccc(C=Cc2cc(O)cc(O)c2)cc1 [Resveratrol, resveratrol, reference compound]
- alleviative effect on NASH ([1]; 200 mg/kg, compared to the negative control): did not exhibit an alleviative effect on NASH
- alleviative effect on NASH / inhibitory activity against NASH [2]: did not exhibit an alleviative effect on NASH

SMILES: CCc1ccc(CCOc2ccc(CC3SC(=O)NC3=O)cc2)nc1 (stereo not shown) [Pioglitazone, pioglitazone]
- dose that aggravates fatty liver [3]: 25 mg/kg
- dose at which subject death occurred (mice): ≥ 320 mg/kg
- dose causing cardiac adverse effects (mice): ≥ 100 mg/kg

SMILES: CCCCCCOc1cc(C)c(O)c(C)c1C [compound 1, 2,3,5-trimethylhydroquinone-1-hexylether]
- lobular inflammatory cellular infiltration ([1]; oral 30 and 200 mg/kg for 4 weeks, vs MCD control, dose-dependent, FIG. 7): reduced lobular inflammatory cellular infiltration
- NAFLD activity scores ([1]; vs MCD control, dose-dependent, FIG. 8): lowered NAFLD activity scores
- anti-inflammatory effect compared to pioglitazone (PGZ) and obeticholic acid (OCA) ([1]; PGZ 10 mg/kg, OCA 30 mg/kg): excellent anti-inflammatory effect
- fatty liver ([4]; 30 and 200 mg/kg for 2 months, dose-dependent, FIG. 2): alleviated
- NAFLD activity scores ([4]; 30 and 200 mg/kg for 2 months, dose-dependent, FIG. 3): alleviated
- lobular inflammatory cellular infiltration (lobular inflammation) ([4]; compound 1 30 and 200 mg/kg for 2 months, vs FFC control, FIG. 1): decrease lobular inflammatory cellular infiltration
- blood glucose level upon insulin administration ([5]; 4 h fast, insulin 0.7 IU/kg i.p., FIG. 13): reduced in blood glucose level more fast
- suppressive effect on high-fat diet-induced insulin resistance (iAUC values) ([5]; FIG. 14): higher suppressive effect on high-fat diet-induced insulin resistance
- ALT level ([2]; 200 mg/kg, vs negative control and comparative control groups, FIG. 6): remarkably reduced
- alleviative effect on NASH / inhibitory activity against NASH [2]: excellent inhibitory activity against NASH
- effect of reducing lobular inflammatory cellular infiltration ([2]; oral 30 and 200 mg/kg for 4 weeks, vs MCD control, FIG. 4): remarkable
- NAFLD activity scores ([2]; FIG. 5): reduce
- anti-inflammatory efficacy compared to pioglitazone (PGZ) and obeticholic acid (OCA) ([2]; PGZ 10 mg/kg, OCA 30 mg/kg): excellent anti-inflammatory efficacy
- suppressive effect on lobular inflammation ([6]; 200 mg/kg, compared to the other drug groups): remarkably highly suppressive effect
- fatty liver ([6]; 30, 100, 200 mg/kg, vs HFD control, dose-dependent): alleviated
- hepatic lobular cellular infiltration ([6]; 30, 100, 200 mg/kg, vs HFD control, dose-dependent, FIG. 15): alleviated
- blood levels of cholesterol ([6]; HFD model, compared to the negative control, FIG. 19(A)): reduced
- blood levels of triglyceride ([6]; HFD model, compared to the negative control, FIG. 19(B)): reduced
- ALT ([6]; HFD model, relative to normal levels, FIG. 17): recovered
- AST ([6]; HFD model, relative to normal levels, FIG. 18): recovered
- ALT levels vs the other drug controls ([6]; HFD model, FIG. 17): further reduced
- AST levels vs the other drug controls ([6]; HFD model, FIG. 18): further reduced
- accumulation of visceral fats such as epididymal fats (epididymal fat weights) ([6]; autopsy after 9 weeks oral administration, FIG. 11): excellent effect of inhibiting the accumulation of visceral fats
- therapeutic effects on NASH by histopathological examinations (lobular inflammation, NAFLD activity scores) ([6]; compared to the other drugs, FIGS. 15 and 16): excellent therapeutic effects on NASH
- weight gain increments resulting from the intake of high-fat diet ([6]; oral 30, 100, 200 mg/kg for 9 weeks, vs HFD control, FIG. 9): remarkably reduced
- mortality (rats [7]): did not cause mortality
- abnormal responses after single dose (adult; single dose of up to 2,000 mg per adult): no abnormal responses were observed
- abnormal responses (such as dyslipidemia) after repetitive administration (adult): no abnormal responses, such as dyslipidemia, were reported; also recorded: no abnormal responses were observed
- abnormal responses (such as dyslipidemia) after repetitive administration (adult; listed as 2,3,5-trimethylhydroquinone-1-hexylether): no abnormal responses were observed
- maximum tolerance dose (beagle dogs): 2,000 mg/kg
- side effects such as death, weight loss, organ failure (rats [8]; dose as high as 500 mg/kg): did not invoke significant side effects; also recorded: no side effects such as death, weight loss, organ failure, etc. were detected
- changes in weight gain, food consumption, urological and serological examinations (rats [8]; up to 500 mg/kg, FIG. 12): No changes attributed to the administration of compound 1 were detected

SMILES: CC[C@H]1[C@@H](O)[C@@H]2[C@H](CC[C@]3(C)[C@@H]([C@H](C)CCC(=O)O)CC[C@@H]23)[C@@]2(C)CC[C@@H](O)C[C@@H]12 [Obeticholic acid, obeticholic acid]
- total cholesterol and LDL cholesterol levels (side effect) [9]: increasing total cholesterol and LDL cholesterol levels
- dose that aggravated NAFLD (liver fibrosis worsen, ALT level increased) [10]: ≥ 40 mg/kg
- dose causing serious side effects such as death of animals (CD-1(ICR) mice): ≥ 175 mg/kg
